{"source": "patent US9145385B2", "about": "“Crystalline salts of R)-3-[6-amino-pyridin-3-yl]-2-(1-cyclohexy1-1H-imidazol-4-yl)-propionic acid” (Sanofi, priority 2011, dated 2015)", "key": {"[1]": {"assay": "Dynamic Vapor Sorption (DVS) moisture sorption/desorption isotherm at 25° C.", "assay_type": "physicochemical", "description": "Moisture sorption/desorption isotherms were recorded on a SPS11-10μ from Projekt Messtechnik (Ulm, Germany). One cycle was run at 25° C., in which the sample was first stepwise decreased to 0% RH and then the relative humidity was stepwise increased from 0 to 95% and the weight of the sample was measured. Typical total measurement times for both cycles were about 20 to 30 hours.\nThe measurement was performed as disclosed in Example 7 with (R)-3-[6-amino-pyridin-3-yl]-2-(1-cyclohexyl-1H-imidazol-4-yl)-propionic acid (free acid, amorphous) and the received data are shown in the following table 2."}, "[2]": {"assay": "Chemical stability under elevated temperature and humidity", "assay_type": "physicochemical", "conditions": "result in words"}}}
{"smiles": "Nc1ccc(CC(C(=O)O)c2cn(C3CCCCC3)cn2)cn1", "note": "(stereo not shown) [3-[6-amino-pyridin-3-yl]-2-(1-cyclohexyl-1H-imidazol-4-yl)-propionic acid, reference compound]", "values": [{"measurement": "hygroscopicity (absorption or adsorption of water molecules from the surrounding environment)", "setting": "[1]; result in words", "result": "hygroscopic"}]}
{"smiles": "Nc1ccc(C[C@@H](C(=O)O)c2cn(C3CCCCC3)cn2)cn1", "note": "[(R)-3-[6-amino-pyridin-3-yl]-2-(1-cyclohexyl-1H-imidazol-4-yl)-propionic acid]", "values": [{"measurement": "chemical stability", "setting": "[2]", "result": "chemically not stable"}, {"measurement": "enantiomeric purity on storage", "setting": "[2]", "result": "reduced within a short time"}]}
{"smiles": "Nc1ccc(C[C@@H](C(=O)[O-])c2cn(C3CCCCC3)cn2)cn1.[Na+]", "note": "[(R)-3-[6-amino-pyridin-3-yl]-2-(1-cyclohexyl-1H-imidazol-4-yl)-propionic acid sodium salt monohydrate]", "values": [{"measurement": "desorption of water", "setting": "[1]; DVS 25° C., at 0.2% RH, phase transition monohydrate to anhydrate", "result": "−4.4", "unit": "%"}]}
